Biological target: Sodium-dependent dopamine transporter (Rattus norvegicus, UniProt P23977)
Assay: In vitro binding affinity to Dopamine transporter in rat striatal homogenates using [125I]IPT20 as the ligand

Chain of Sodium-dependent dopamine transporter (P23977 whole entry, looked up): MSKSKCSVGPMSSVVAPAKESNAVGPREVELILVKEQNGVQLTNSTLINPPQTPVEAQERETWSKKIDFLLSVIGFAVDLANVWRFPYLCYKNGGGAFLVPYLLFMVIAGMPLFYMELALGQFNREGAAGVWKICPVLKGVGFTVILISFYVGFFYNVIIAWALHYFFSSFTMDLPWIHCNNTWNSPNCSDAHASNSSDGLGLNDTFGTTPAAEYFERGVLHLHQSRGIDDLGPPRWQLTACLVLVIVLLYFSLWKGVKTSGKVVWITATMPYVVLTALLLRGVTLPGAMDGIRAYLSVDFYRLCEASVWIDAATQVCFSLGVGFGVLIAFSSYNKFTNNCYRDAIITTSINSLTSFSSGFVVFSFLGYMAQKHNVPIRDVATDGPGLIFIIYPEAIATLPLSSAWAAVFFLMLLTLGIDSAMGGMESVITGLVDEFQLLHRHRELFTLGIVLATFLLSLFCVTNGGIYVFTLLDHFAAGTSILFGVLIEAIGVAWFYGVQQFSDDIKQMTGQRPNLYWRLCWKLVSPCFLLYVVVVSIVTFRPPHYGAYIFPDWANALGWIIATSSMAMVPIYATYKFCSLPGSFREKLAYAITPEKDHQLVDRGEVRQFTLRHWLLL

CN1C2CCC1[C@@H](CN(CCS)CCNCCS)[C@@H](c1ccc(Cl)cc1)C2 (stereo partly specified)
Ki: 7 nM
